Tests used:
adenocarcinoma = assay: Adenocarcinoma transplanted after administration of the product; assay type: in vivo, mice; conditions: day 21
Description: 3. Antitumor Activity for Adenocarcinoma Transplanted After Administration of the Product.
The active ingredient of the invention was administered intravenously in the dosage stated in the table 4 days in succession in physiological saline solution of 0.3 ml each time. The adenocarcinoma was then implanted in the Balb mice. 21 days after the tumor was transplanted, the animals were sacrificed and the weight and size of the tumor recorded. The animals received no other drugs during the experiment and were kept with a normal feed ration.

C-180 sarcoma = assay: Antitumor activity for C-180 sarcoma, intraperitoneal; assay type: in vivo; conditions: 5 mg/kg intraperitoneal
Description: 4. Antitumor Activity for C-180 Sarcoma
The results of series of experiments in which the stated active ingredient was administered intra-peritoneally in the stated dosage in physiological saline solution are shown in table 5 below.

leukemia L-1210 = assay: Leukemia L-1210 survival; assay type: in vivo, mice
Description: (§1) The therapeutic efficacy was investigated on the leukemia tumor strains L-1210, P-388, and P-388 strains specifically obtained for drug resistance. The lifespan of the animals was set at 60 days in this case. Drug-resistant tumor were obtained by successive transplantation of the leukemia P-388 with ascites cells taken from mice which had been treated with rubomycin (strain P388/ph), vincristine (P388/vcr) and zisplatin (P388/cPt).
Inoculum: 10^6 cells in 0.2 ml of physiological saline solution. Mice: BDF1, females 19-21 g. The products were administered intraabdominally.
After transplantation of the tumor, the substance MOC.melphalan was administered intraabdominally to the animals in a dosage of 5 mg/kg in 0.3 ml of 10% Twin-80 solution on days 1 to 7. The effect of the substance was assessed on the basis of the lifespan and the weight change of the animals (table 9). The observation period was 60 days.

P388/ph = assay: Drug-resistant leukemia P388/ph (rubomycin-resistant) survival; assay type: in vivo, mice; conditions: 5 mg/kg, days 1-7
Source text: as §1
Resistance to the products mentioned appear in the 8th, 6th and 4th generation.
The products were administered intraabdominally. Cu(acac)2M was dissolved in 10% Twin 80.

AKATON tumor = AKATON tumor prevention by MOC.melphalan; assay type: in vivo, mice; conditions: for Average tumor mass: control 4.46; for Average tumor volume: control 7.90
Description: Mice of the Balb line received the substance MOC.melphalan in dosages of 2.5 mg/kg and 5 mg/kg in 0.3 ml of physiological solution by intravenous administration on four consecutive days (1× a day). On day 5, the AKATON tumor was implanted in the animals. The animals were sacrificed on day 21 of the investigation and underwent histological, morphological examination (table 16, FIG. 6).

[1] = test system: S-180 sarcoma tumor cells; assay: DNA concentration in S-180 sarcoma tumor cells after incubation; assay type: cell-based, mice; conditions: 0.05 mg/10^6 cells; for DNA concentration: 37° C., control 106; for DNA concentration/control: control 100
Description: S-180 sarcoma tumor cells (20·10^6 cells/investigation) were incubated with the substance MOC.melphalan in a concentration of 0.05 mg/10^6 cells at a temperature of 37° C. for 40 or 60 min (see table 16).
The DNA concentration was determined using the phenol-chloroform method of MANIATIS (Maniatis, Frin, Sämbruck Methods of genetic engineering, Molecular Cloning, M.: MIR, 1984, pages 479 et seq.). Separation of DNA and RNA was followed by a phoresis in a 2.5% agarose gel (see table 16, FIG. 7).

B-16 melanoma tumor = assay: B-16 melanoma tumor, MOC.melphalan and MOC.tegafur (Example 13); assay type: in vivo, mice; conditions: Dose 5 mg/kg (table), day 16
Description: MOC.tegafur was administered in a physiological solution. The animals in the control group likewise received administration of the solutions (without products). On day 16, the mice were sacrificed by decapitation, tumor tissue was removed for histological examination, and the tumor was investigated for antitumor activity (table 23). The tumors were fixed with 10% formalin, which was followed by embedding in paraffin. The section thickness of 5 μm were stained with hematoxylin-eosinome. The microscopy was carried out with a Leica Galen microscope.

[2] = test system: tumor cell cultures (KML); assay: Suppression of cell proliferation in tumor cell cultures (KML); assay type: cell-based, mice; conditions: incubation 24 hours
Description: The effect of the substances MOC.melphalan and MOC.tegafur of the invention on the proliferative activity, morphology and protein synthesis was investigated on tumor cell cultures (KML). This took place with the mice separated out of the melanoma-16 line. 80 000 cells/ml were distributed in 3 ml of DMEM with the addition of embryonic calf serum, 200 μ/mol of glutamine and antibiotic. After cultivation of the cells at a temperature of 37° C. for 24 hours (logarithmic cell growth phase), the MOC substances were added in the concentration of 10 and 100 μg/ml. After incubation for 24 hours, the number of live cells was determined. In parallel, the fixed specimens of the cells were prepared for morphological analysis.

Hydrolysis stability = assay type: physicochemical; conditions: for period of stability (no hydrolysis): 20° C.
Description: 0.6 g of (C5H7O2)2—Cu—C13H18Cl2N2O2 was dispersed in 100 ml of water or physiological saline solution with the aid of an ultrasound generator (frequency: 15 kHz, 10 minutes).
0.6 g of (C5H7O2)2—Cu—C13H18Cl2N2O2 was dispersed in 100 ml of 100% olive oil with the aid of an ultrasound generator (frequency: 15 kHz, 10 minutes).
0.1 g of (C5H7O2)2—Cu—C13H18Cl2N2O2 was dispersed in 100 ml of linoleic acid or linolenic acid with the aid of an ultrasound generator (frequency: 15 kHz, 10 minutes).

leukemia P-388 = assay: Leukemia P-388 survival (original strain); assay type: in vivo, mice
[3] = Solubility and stability in air
[4] = 5 mg/kg i.v. 4 days before implantation
[5] = 2.5 mg/kg i.v. four consecutive days before implantation
[6] = 5.0 mg/kg i.v. four consecutive days before implantation

CC(=O)C=C(C)[O-].CC(=O)C=C(C)[O-].NC(Cc1ccc(N(CCCl)CCCl)cc1)C(=O)O.[Cu+2] (centres unmarked) [MOC.melphalan, (C5H7O2)2—Cu—C13H18Cl2N2O2]
% inhibition (mass of the tumor) (adenocarcinoma; [4]): 80%
% inhibition (size of the tumor) (adenocarcinoma; [4]): 82.5%
Size of the tumor (adenocarcinoma; 5 mg/kg i.v. 4 days before implantation, control 7.9): 1.38 cm^3
Mass of the tumor (adenocarcinoma; 5 mg/kg i.v. 4 days in succession before implantation, control 4.46): 0.91 g
% inhibition (C-180 sarcoma): 100%
Mass of the tumor (C-180 sarcoma; control 2.8): no tumor
Change in weight (leukemia L-1210; 5 mg/kg intraabdominal days 1-7): -1.5 g
% of surviving animals (leukemia L-1210; 5 mg/kg intraabdominal days 1-7, 60 days observation): 100%
Lifespan of the animals in the experiment (leukemia L-1210; 5 mg/kg intraabdominal days 1-7, control 8.5): >60 days
ILS % (P388/ph): 189%
Number of surviving animals/number of animals in group (P388/ph): 2/6
Percent inhibition of tumor volume (AKATON tumor; [5]): 40%
Percent inhibition of tumor weight (AKATON tumor; [5]): 40%
Average tumor mass (AKATON tumor; [5]): 2.67 g
Average tumor volume (AKATON tumor; [5]): 4.76 cm^3
Percent inhibition of tumor volume (AKATON tumor; [6]): 82%
Percent inhibition of tumor weight (AKATON tumor; [6]): 80%
Average tumor mass (AKATON tumor; [6]): 0.91 g
Average tumor volume (AKATON tumor; [6]): 1.38 cm^3
DNA concentration ([1]; incubation 40 min): 530 μg/g of cells
DNA concentration ([1]; incubation 60 min): 53 μg/g of cells
DNA concentration/control ([1]; incubation 40 min): 498
DNA concentration/control ([1]; incubation 60 min): 50
MI (mitosis index) (B-16 melanoma tumor; control 4.22): 0.64
Percent inhibition (B-16 melanoma tumor; intraabdominal days 3, 5, 9): 77.71%
Tumor weight (B-16 melanoma tumor; intraabdominal days 3, 5, 9, control 3.22): 0.74 g
Suppression of growth cells ([2]; 10 μg/ml): 30%
Suppression of growth cells ([2]; 100 μg/ml): 95%
period of stability (Hydrolysis stability; 0.1 g in 100 ml of linoleic acid or linolenic acid, 20° C. in air): 1 year
period of stability (no hydrolysis) (Hydrolysis stability; 0.6 g in 100 ml of 100% olive oil): more than 2 years
period of stability (no hydrolysis) (Hydrolysis stability; 0.6 g in 100 ml of water or physiological saline solution): 30 days
ILS % (leukemia P-388; 10 mg/kg, days 1, 5, 9): 419%
Number of surviving animals/number of animals in group (leukemia P-388; 10 mg/kg, days 1, 5, 9): 5/6
ILS % (leukemia P-388; 10 mg/kg, days 1, 7): 465%
Number of surviving animals/number of animals in group (leukemia P-388; 10 mg/kg, days 1, 7): 4/6
ILS % (leukemia P-388; 15 mg/kg, days 1, 7): 447%
Number of surviving animals/number of animals in group (leukemia P-388; 15 mg/kg, days 1, 7): 5/6
solubility in water [3]: poor solubility
